Values quoted from earlier work as cited in patent US20100056493A1, “MODIFIED RELEASE PHARMACEUTICAL COMPOSITION AND A PROCESS OF MAKING THE SAME” (priority 2007, published 2010).

Assays:
[1] = given in brackets after the drug name; no method stated
[2] = test system: de novo kidney allograft recipients; conditions: P=NS
[3] = 720 mg mycophenolic acid as mycophenolate sodium twice daily or 1000 mg MMF twice daily

SMILES	pH [1]	frequency of dosage reductions, discontinuation, or temporary interruptions of therapy secondary to GI toxicities [2, 3]	incidence of GI adverse events [2, 3]	overall incidence of efficacy failure (biopsy-proven acute rejection, graft loss, death, or loss to follow-up) ([2]; at 6 months, 720 mg mycophenolic acid as mycophenolate sodium twice daily (n=213) or 1000 mg MMF twice daily (n=210))	BPAR rates ([2]; at 12 months, 720 mg mycophenolic acid as mycophenolate sodium twice daily or 1000 mg MMF twice daily)
O=C(O)/C=C/C(=O)O.OCCOCCN1CCN(C2=Nc3ccccc3Sc3ccccc32)CC1 [Quetiapine fumarate, 2-[2-(4-dibenzo[b,f][1,4]thiazepin-11-yl-1-piperazinyl)ethoxy]-ethanol fumarate]	5.4	–	–	–	–
COc1c(C)c2c(c(O)c1C/C=C(\C)CCC(=O)O)C(=O)OC2 [mycophenolate sodium]	–	13.1%	78.4%	–	–
COc1c(C)c2c(c(O)c1C/C=C(\C)CCC(=O)OCCN1CCOCC1)C(=O)OC2 [MMF, mycophenolate mofetil]	7.2	17.6%	78.1%	28.1%	24.3%
